Source: US7071228B2, “Method of treating musculoskeletal and connective tissue inflammations” (priority 2002, dated 2006)

What was measured:
Assay type in all cases: in vivo, human
[1] = tested on: inflammatory osteoarthritis and rheumatism; test: Clinical treatment of a patient, Example 2; settings: for effect of past treatment: person, before Accutane
Protocol: (§1) Example 1 to 3 illustrate clinical effectiveness of the above described treatment method. An initial treatment and a maintenance treatment as described above were prescribed to the patients. It is noted that the patients described in the Examples were in the average weight range, therefore, an average dosage of 40 mg was used. It is noted that all patients were told to totally avoid sun exposure during the initial treatment dosage period and for the first one or two weeks after instituting the maintenance dosage because of sun sensitivity with the use of Accutane®.
A person retired Navy Chief Warrant Officer was diagnosed with inflammatory osteoarthritis and rheumatism. The symptoms included joint pains for six to ten years. Initially in 1992 the join pains affected the right hip, and the patient suffered from the hip pain while working. In 1994, the patient developed neck and left shoulder pain. […] Furthermore, the shoulder was diagnosed as a rotator cuff injury. In 1997, the patient's hands became tender when playing golf. The hand condition progressed to puffiness of fingers and a gripping problem with difficulty closing hands. The patient's blood chemistry was normal.
The patient was placed on the 13-cis retanoic acid treatment on May 1, 2002 with an initial dosage about 40 mg Accutane® daily for fourteen days, followed by a maintenance dosage of about 40 mg Accutane® twice a week. […] As a result of such a significant improvement of the physical condition, the patient's golf handicap dropped from eleven (11) to nine (9).

[2] = tested on: osteoarthritis with capsulitis; test: Clinical treatment of a patient, Example 1; settings: for benefit of earlier therapeutic treatments: before Accutane, Asprin two to five 325 mg pills per day
Protocol: as §1
A patient in generally good health had the onset of joint complaints in 1988 affecting only the hands. The main location was in the distal interphalangeal joint (IP joint) which had been fractured in 1980. Symptoms were puffiness and swelling with increasing tenderness over the years. The tenderness had become so pronounced that in 1994 they stopped shaking hands because of the pain. In addition they had progressive difficulty making a fist because of swelling and tightness of the fingers.
X-ray examination found thining of joint space and capsular swelling of the interphalangeal joints. Laboratory examination results were normal. The patient was diagnosed with osteoarthritis with capsulitis.
In April 1997 the patient started taking Accutane® (13-cis retanoid acid, Hoffmann-La Roche Inc., Nutley, N.J.) for another medical condition in an initial dosage of about 40 mg Accutane® daily for twenty one days, followed by a maintenance dosage of about 40 mg Accutane® twice a week (on Monday and Friday).

[3] = tested on: musculoskeletal and connective tissue inflammations; test: Treatment of patients with initial and maintenance dosage, general findings; settings: long term use of the low maintenance dosage
Protocol: Preferably, the treatment method further includes two treatment periods: an initial treatment, and a maintenance treatment. First, in the initial treatment, a patient administrates an initial dosage of 13-cis-retinoic acid for a period from about ten days to about five months. Thereafter, the patient administrates a lower maintenance dosage of 13-cis-retinoic acid.
The dosage is determined based on the patient's body weight. The initial dosage is in a range from about 10 mg to 80 mg 13-cis-retinoic acid daily (about 0.14 mg to about 1.1 mg per kilogram (kg) of body weight). For average men having a body weight about 160 lbs (72.6 kg), the average initial dosage is about 40 mg daily. The maintenance dosage is in a range from about 10 mg to 80 mg 13-cis-retinoic acid every three to seven days (about 0.14 mg to about 1.1 mg per kilogram (kg) of body weight). The average maintenance dosage for average men having a body weight about 160 lbs is about 40 mg every three to seven days. The dosages should be adjusted accordingly for children or those who weigh substantially less than or above the average body weight.
Furthermore, no serious adverse side effects were observed by using the described treatment. […]

osteoarthritis = test: Clinical treatment of a patient, Example 3
Protocol: as §1
A farmer, had more than a ten year history of hand pain involving fingers, and associated with swelling and tenderness of interphalangeal joints. The hand condition made their work and playing golf difficult. The patient was diagnosed with osteoarthritis.
The patient was placed on 13-cis retanoic acid treatment in April of 2001, with an initial dosage of about 40 mg Accutane® daily for twenty one days, followed by a maintenance dosage of about 40 mg Accutane® twice a week. […] The improvements were maintained during a subsequent six month continuation of the maintenance dosage.

[4] = 40 mg daily 14 days, then 40 mg twice a week
[5] = about 40 mg daily 21 days, then 40 mg twice a week

Which results are given for `CC1=C(/C=C/C(C)=C/C=C/C(C)=C\C(=O)O)C(C)(C)CCC1` [Accutane, 13-cis-retinoic acid]?
hand puffiness and grip problems [1, 4]: no longer exist; side effects [1, 4]: minimal side effects; shoulder pain ([1]; about 40 mg daily 14 days, then 40 mg twice a week, after total of seven weeks, physical therapy continued): completely abated; range of movement (shoulder) ([1]; after total of seven weeks of treatment): returned to normal; neck and hip pains ([1]; as of August, 2002 (start May 1, 2002)): almost completely abated; hand tenderness ([1]; if they play golf three to four days in a row): still exhibit a tinge of tenderness; cervical spine tenderness [2, 5]: slow improvement; fibro calcified peri-spinous nodules of cervical spine [2, 5]: dissolution; range of motion (ROM), cervical spine [2, 5]: increased range of motion; stiff and painful shoulder condition (old rotator cuff injury, right shoulder) ([2]; about 40 mg daily 21 days, then 40 mg twice a week, over the ensuing months): improvement; blood-chemistries and hematology test results ([2]; continued maintenance dosage): remained normal; overall physical well being / musculoskeletal infirmities ([2]; continued maintenance dosage): no longer has any musculoskeletal infirmities; right shoulder pain during the initial treatment ([2]; initial treatment about 40 mg daily): increased right shoulder pain was noted, which then abated; physical side effects ([2]; long-term maintenance dosage 40 mg twice a week): No physical side effects have been noted other than dry lips and skin in the early stages; hand condition ([2]; person, about 40 mg daily for 21 days, then about 40 mg twice a week, over the ensuing months): gradual, but steady improvement; long term effect on musculoskeletal and connective tissue inflammations [3]: provides a long term control; range of movement (osteoarthritis; after ten weeks treatment): improvement; swelling and tenderness of the fingers (osteoarthritis; after ten weeks treatment): decreased; pre-therapy and follow-up blood tests (osteoarthritis; human, in vivo): normal; symptoms (osteoarthritis; person, about 40 mg daily 21 days, then 40 mg twice a week, after ten weeks treatment): began to improve; persistence of improvements (osteoarthritis; subsequent six month continuation of the maintenance dosage): maintained; side effects (osteoarthritis; subsided after taking the maintenance dosage): no side effects other than dry lips and skin

What does the source list for `CC(=O)Oc1ccccc1C(=O)O` [Aspirin]?
effect of past treatment [1]: minimal effect; benefit of earlier therapeutic treatments [2]: minimal or no benefit

How did the “effect of past treatment” value [1] turn out when `CC(C)Cc1ccc(C(C)C(=O)O)cc1` (stereo not drawn) [Motrin, ibuprofen] was run?
Its value is “minimal effect”.

What about the “benefit of earlier therapeutic treatments” value [2] of the same molecule?
Its value is “minimal or no benefit”.

How did the “benefit of earlier therapeutic treatments” value [2] turn out when `COc1ccc2cc([C@H](C)C(=O)O)ccc2c1` [Naprosyn, naproxen] was run?
Its value is “minimal or no benefit”.
